US9487489B2, “Halogen-substituted pyrazole derivatives as pest-control agents” (BAYER CROPSCIENCE AKTIENGESELLSCHAFT, priority 2013, dated 2016)
Several values for one entry are separate records, joined by “and”; a condition that tells them apart may be missing. Equal values may be shown once.

How the values were obtained:
[1] = logP determination by HPLC on a reversed-phase column (C18), EEC Directive 79/831 Annex V.A8; type: physicochemical
Procedure, shortened: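 Per EEC 79/831 Annex V.A8, values derive from HPLC retention at 2.0 ml/min and 55° C on a 50*4.6 C18 column. The 10→95% acetonitrile gradient (0.1%/0.09% formic acid) lasted 4.25 min plus a 1.25 min hold; mass detection was by MSD.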

[2] = system: bont tick nymphs (Amblyomma hebraeum); conditions: after 48 h
[3] = system: larvae of the mustard beetle (Phaedon cochleariae); assay: Phaedon cochleariae spray test (PHAECO); type: in vivo; conditions: Chinese cabbage leaf discs, after 7 days
Procedure, shortened: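 Kill of mustard beetle larvae is read as % mortality 7 days after spraying. Spray liquid: active compound in acetone plus dimethylformamide, brought up with water holding 1000 ppm alkylaryl polyglycol ether emulsifier and diluted further in emulsifier-water.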

[4] = system: engorged adult female cattle ticks (Boophilus microplus); assay: Boophilus microplus injection test (BOOPMI Inj); type: in vivo; conditions: application rate 20 μg/animal; injection into abdomen; assessed after 7 days
Procedure, shortened: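 Efficacy is read at 7 days as fertile egg laying (100% = no fertile eggs laid; 0% = all eggs fertile), with eggs of unclear fertility stored until larvae hatch at about 42 days. Five engorged adult females per dose each receive an abdominal injection of 1 μl compound dissolved in DMSO.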

[5] = system: L1 larvae of the Australian sheep blowfly (Lucilia cuprina); assay: Lucilia cuprina test (LUCICU); type: in vivo; conditions: application rate 100 ppm; after 2 days
Procedure, shortened: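 Percent mortality read at 2 days; 100% = all larvae killed, 0% = none. Test compound, predissolved in DMSO and water-diluted to the wanted level, was mixed into minced horsemeat holding roughly 20 first-instar larvae.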

[6] = system: adult cat fleas (Ctenocephalides felis); assay: Ctenocephalides felis in vitro contact test with adult cat fleas (T1); conditions: after 48 h
Procedure, shortened: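 Adult cat fleas (Ctenocephalides felis), 5-10 per tube, were exposed to the inner surface of 25 ml test tubes coated with compound in acetone. Tubes were incubated lying flat under ambient conditions. Efficacy was then read by standing tubes upright and knocking the fleas to the floor. Fleas that stayed motionless or moved uncoordinatedly counted as dead or moribund, where 100% means all fleas dead or moribund and 0% means none harmed.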

[7] = system: caterpillars of the armyworm (Spodoptera frugiperda); assay: Spodoptera frugiperda spray test (SPODFR); type: in vivo; conditions: maize leaf discs, after 7 days
Procedure, shortened: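 Percent kill read at day 7 on caterpillar-infested maize leaf discs. Discs were first sprayed with aqueous emulsifier-containing (1000 ppm) preparations made from acetone/dimethylformamide solutions, and dried. Scale: 0% none dead, 100% all dead.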

[8] = system: cattle ticks (Boophilus microplus) Parkhurst strain, SP-resistant; assay: Boophilus microplus dip test (BOOPMI Dip); type: in vivo; conditions: application rate 100 ppm, assessed after 7 days
Description: B. Boophilus microplus-dip Test (BOOPMI Dip)
Test animals: cattle ticks (Boophilus microplus) Parkhurst strain, SP-resistant
Solvent: dimethyl sulphoxide
10 mg of active compound are dissolved in 0.5 ml of dimethyl sulphoxide. For the purpose of preparing a suitable formulation, the active compound solution is diluted with water to the concentration desired in each case.
This active compound preparation is pipetted into tubes. 8-10 adult engorged female cattle ticks (Boophilus microplus) are transferred into a further tube with holes. The tube is immersed into the active compound formulation, and all ticks are completely wetted. After the liquid has run out, the ticks are transferred on filter discs into plastic dishes and stored in a climate-controlled room.
The activity is assessed after 7 days by laying of fertile eggs. Eggs whose fertility is not visible from the outside are stored in a climate-controlled cabinet until the larvae hatch after about 42 days. An efficacy of 100% means that none of the ticks has laid any fertile eggs; 0% means that all eggs are fertile.

[9] = system: green peach aphid (Myzus persicae); assay: Myzus persicae spray test (MYZUPE); type: in vivo; conditions: Chinese cabbage leaf discs, after 6 days
Procedure, shortened: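 Chinese cabbage leaf discs infested with all aphid stages sprayed with compound in acetone/DMF with alkylaryl polyglycol ether emulsifier in water. Efficacy (% aphids killed; 100% all dead, 0% none) scored after 6 days.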

[10] = system: adult houseflies (Musca domestica); assay: Musca domestica test (MUSCDO); type: in vivo; conditions: application rate 100 ppm; after 2 days
Procedure, shortened: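 Groups of 10 adult Musca domestica exposed to a sugar-soaked sponge treated with the water-diluted DMSO preparation of compound at the chosen concentration. Percent kill read at day 2, where 0% means no flies killed and 100% all killed.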

[11] = system: greenhouse red spider mite (Tetranychus urticae); assay: Tetranychus urticae spray test, OP-resistant (TETRUR); type: in vivo; conditions: bean leaf discs, after 6 days
Procedure, shortened: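 Percent kill, scored 6 days post-spray (0% = none dead, 100% = all dead), on Phaseolus vulgaris leaf discs infested with every life stage of the OP-resistant spider mite. Compound dissolved in acetone plus DMF, diluted to test concentration with emulsifier-containing water (1000 ppm).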

[12] = system: adult cat fleas (Ctenocephalides felis); assay: Ctenocephalides felis oral test (CTECFE); type: in vivo; conditions: application rate 100 ppm in citrated cattle blood; after 2 days
Procedure, shortened: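 Mortality read at 2 days as percent of fleas killed. Compound predissolved in DMSO, diluted into citrated cattle blood and offered to roughly 20 unfed adult C. felis via parafilm membrane feeder.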

[13] = system: adult dog ticks (Rhipicephalus sanguineus); assay: Rhipicephalus sanguineus in vitro contact test with adult brown dog ticks (T2); conditions: after 48 h
Procedure, shortened: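 Acetone solutions coated onto test tube walls and floor, giving 5 μg/cm^2 at 900 ppm. Five to ten adult ticks held per tube in the dark at room temperature for 48 h, then heated at 45-50° C for up to 5 min; efficacy is the percentage of dead or moribund ticks unable to climb away.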

[14] = system: adult castor bean ticks (Ixodes ricinus); assay: Ixodes ricinus in vitro contact test with adult castor bean ticks (T3); conditions: after 48 h
Description: T3. Ixodes ricinus-in vitro Contact Tests with Adult Castor Bean Ticks
For the coating of the test tubes, initially 9 mg of active compound are dissolved in 1 ml of acetone p.a. and then diluted with acetone p.a. to the desired concentration. By turning and rocking on an orbital shaker (2 h of rocking rotation at 30 rpm), 250 μl of the solution are distributed homogeneously on the internal walls and the floor of a 25 ml test tube. At 900 ppm active compound solution and 44.7 cm^2 internal surface, an area dose of 5 μg/cm^2 is achieved for homogeneous distribution.
After evaporation of the solvent, the tubes are populated with 5-10 adult castor bean ticks (Ixodes ricinus), sealed with a perforated plastic lid and incubated in a horizontal position in the dark at 22° C. and 90% humidity in a climate-controlled cabinet. After 48 h, the efficacy is determined. To this end, the ticks are knocked to the floor of the tube and incubated on a hotplate at 45-50° C. for at most 5 min. Ticks which remain motionless on the floor or move in an uncoordinated manner such that they are not able to deliberately avoid the heat by climbing upwards are considered to be dead or moribund.
An efficacy of 100% means that all ticks were dead or moribund. 0% efficacy means that none of the ticks had been damaged.

[15] = HPLC on reversed-phase column (C18), acetonitrile/water with formic acid, EEC Directive 79/831 Annex V.A8

| SMILES | efficacy (dead or moribund ticks) [2] | efficacy in % ([3]; application rate 100 g/ha) | efficacy (laying of fertile eggs) [4] | efficacy (kill in %) [5] | efficacy (dead or moribund fleas) ([6]; application rate 1 μg/cm^2) | efficacy (dead or moribund fleas) ([6]; application rate 5 μg/cm^2) | efficacy in % ([7]; application rate 100 g/ha) | efficacy (laying of fertile eggs) [8] | efficacy in % ([9]; application rate 100 g/ha) | efficacy (kill in %) [10] | efficacy in % ([11]; application rate 100 g/ha) | efficacy (kill in %) [12] | efficacy (dead or moribund ticks) ([13]; application rate 1 μg/cm^2) | efficacy (dead or moribund ticks) ([13]; application rate 5 μg/cm^2) | logP [1, 15] | efficacy in % ([3]; application rate 500 g/ha) | efficacy in % ([7]; application rate 500 g/ha) | efficacy in % ([11]; application rate 500 g/ha) | other results |
| --- | --- | --- | --- | --- | --- | --- | --- | --- | --- | --- | --- | --- | --- | --- | --- | --- | --- | --- | --- |
| Cn1nc(C(F)(F)C(F)(F)F)c(C(F)(F)F)c1-n1cnc(-c2ccc(Cl)c(C(=O)NC3(C#N)CC3)c2)c1 [Ib-2] | 100% | 100% | 100% | 100% | 100% | 100% | 100% | 100% | 90% | 100% | 100% | 100% |  |  |  |  |  |  | logP ([1]; HPLC, reversed-phase C18, acetonitrile (0.1% formic acid)/water (0.09% formic acid) gradient): 3.38 |
| Cn1nc(C(F)(F)C(F)(F)F)c(C(F)(F)F)c1-n1cc(-c2cccc(C(=O)NC3CC3)c2)cn1 [Ic-18] | 100% | 100% | 100% | 100% | 100% | 100% | 100% |  |  | 100% |  | 100% | 100% | 100% | 3.66 |  |  |  | efficacy (dead or moribund ticks) ([14]; application rate 5 μg/cm^2): 80% |
| Cn1nc(C(F)(F)C(F)(F)F)c(C(F)(F)F)c1-n1cc(-c2ccc(Cl)c(C(=O)NCc3ccccc3)c2)cn1 [Ic-3] | 100% and 80% | 100% | 100% | 100% |  |  | 100% |  |  | 100% | 90% | 100% |  |  | 4.39 |  |  |  |  |
| Cn1nc(C(F)(F)C(F)(F)F)c(C(F)(F)F)c1-n1cc(-c2ccc(Cl)c(C(=O)NC3(C(F)(F)F)CC3)c2)cn1 [Ic-32] | 100% | 100% | 100% | 100% |  | 80% | 100% |  |  | 100% | 100% | 100% | 80% |  | 4.29 |  |  |  |  |
| Cn1nc(C(F)(F)C(F)(F)F)c(C(F)(F)F)c1-n1cc(-c2ccc(Cl)c(C(=O)NCCF)c2)cn1 [Ic-77] |  |  | 100% | 100% | 100% | 100% | 100% | 100% | 100% | 100% | 100% | 100% | 100% | 100% | 3.67 |  |  |  |  |
| Cn1nc(C(F)(F)C(F)(F)F)c(C(F)(F)F)c1-n1cc(-c2ccc(Cl)c(C(=O)NCC#N)c2)cn1 [Ic-147] |  |  | 100% | 100% | 100% | 100% |  | 100% | 90% | 100% |  | 100% | 80% |  |  | 100% | 100% | 100% | efficacy in % ([9]; application rate 500 g/ha): 100% |
| COc1ncc(-c2cnn(-c3c(C(F)(F)F)c(C(F)(F)C(F)(F)F)nn3C)c2)cc1C(=O)NC1(C#N)CC1 [Ic-87] | 100% |  | 100% | 100% | 100% | 100% |  |  | 90% | 100% |  | 100% | 100% | 100% |  | 100% | 100% | 100% | efficacy (dead or moribund ticks) ([14]; application rate 1 μg/cm^2): 80%; efficacy (dead or moribund ticks) ([14]; application rate 5 μg/cm^2): 100% |
| Cn1nc(C(F)(F)C(F)(F)F)c(C(F)(F)F)c1-n1cc(-c2cccc(C(=O)NC3(C#N)CC3)c2)cn1 [Ic-19] | 100% | 100% | 100% | 100% | 100% | 100% | 100% |  |  | 100% | 100% | 100% | 100% | 80% | 3.61 |  |  |  |  |
| Cn1nc(C(F)(F)C(F)(F)F)c(C(F)(F)F)c1-n1cc(-c2ccc(Cl)c(C(=O)NCC3CC3)c2)cn1 [Ic-153] |  |  | 100% | 100% | 100% | 100% |  | 100% |  | 100% |  | 100% | 80% | 80% |  | 100% | 100% | 100% | efficacy in % ([9]; application rate 500 g/ha): 90% |
